Patent US8987332B2, “Methods of treating inflammatory conditions” (The Regents of the University of California, priority 2009, dated 2015)

Legend:
RAW 264.7 cells [1] = assay: ERK1/2 phosphorylation in RAW 264.7 cells; format: cell-based, mouse; details: 100 μM, 5 min
Procedure: FIG. 9, related to FIGS. 2 and 3. DHA-stimulated GPR120 inhibits TNF-α, TLR2 and TLR3-induced inflammation via a β-arrestin2 dependent mechanism. (A) ERK1/2 phosphorylation stimulated by GPR120 activation in RAW 264.7 cells transfected with scrambled or GPR120 siRNA. Cells were treated with 100 μM of DHA, α-linolenic acid or palmitic acid for 5 min. […] Data are expressed as the mean±SEM of three independent experiments. *, p<0.05 versus scrambled siRNA transfected cells. (B) Differentiated 3T3-L1 adipocytes were transfected with scrambled or GPR120 siRNA (GPR120 KD) and then 48 hr after siRNA transfection, cells were treated with 100 μM of DHA or GW9508 for 1 hr prior to TNF-α (10 ng/ml) treatment for 7 min prior to harvesting and then subjected to western blotting with the indicated antibodies. (C) RAW 264.7 cells, transfected with scrambled or GPR120 siRNA (GPR120 KD), were treated with 100 μM of DHA for 1 hr prior to 10 min TLR2 ligand, Pam3CSK4 (50 ng/ml), or TLR3 ligand, poly(I:C) (1 μg/ml), treatment and then subjected to western blotting. (D) To characterize the interaction site between β-arrestin2 and GPR120 or TAB1, HA-tagged GPR120 and FLAG-tagged serial C-terminal deletion mutants of β-arrestin2 (full, 1-300, 1-253, 1-176, and 1-163) or an N-terminal deletion mutant (80-410) were cotransfected in 293 cells. For immunoprecipitation of FLAG-βarr2 and HA-GPR120, cells were treated with DHA for 30 min, while DHA was used for 1 hr to detect endogenous TAB1 and FLAG-βarr2 interactions.
(§1) Proteins from tissues or cell lysates were extracted with radioimmune precipitation buffer in the presence of phosphatase inhibitors and protease inhibitors (Roche Applied Science). […] of proteins/lane were separated on a 10% polyacrylamide, precast SDS gel (Bio-Rad) followed by transfer on polyvinylidene difluoride membrane (Immobilon, Millipore), and western blotting was performed as described (Nguyen et al., 2005) with indicated antibodies. […]

RAW 264.7 cells [2] = assay: LPS-induced inflammatory signaling and cytokine secretion in RAW 264.7 cells; format: cell-based, mouse; details: for LPS-induced phosphorylation of JNK and IKKβ, IκB degradation, cytokine secretion and inflammatory gene expression level: pretreated 1 hr
From the text: FIG. 1. Expression level of GPR120 and GPR120-mediated anti-inflammatory response in RAW 264.7 cells. (A) The mRNA expression pattern of various lipid sensing GPCRs is shown in adipose tissue, (B) CD11c+ bone marrow-derived dendritic cells (BMDCs), bone marrow-derived macrophages (BMDMs), IPMacs, 3T3-L1 preadipocytes, differentiated 3T3-L1 adipocytes, RAW 264.7 cells and L6 myocytes. Ribosomal protein S3 (RPS3) was used as internal control. (C) Expression of GPR120 in SVF, adipocytes and hepatic Kupffer cells from chow (NC)- or HFD-fed mice was examined by q-PCR. Data are expressed as the mean±SEM of at least three independent experiments in triplicate. *, p<0.05 versus NC. (D) RAW 264.7 cells, transfected with scrambled (Scr) or GPR120 #2 siRNA (GPR120 KD), were treated with 100 μM of GW9508 for 1 hr prior to LPS (100 ng/ml) treatment for 10 min and then subjected to western blotting. […] (E) Cytokine secretion level was measured in RAW 264.7 cells by ELISA. Data are expressed as the mean±SEM of three independent experiments. *, p<0.05 versus LPS treatment in scrambled siRNA transfected cells. See also FIGS. 8 and 9.
Proteins from tissues or cell lysates were extracted with radioimmune precipitation buffer in the presence of phosphatase inhibitors and protease inhibitors (Roche Applied Science). […] of proteins/lane were separated on a 10% polyacrylamide, precast SDS gel (Bio-Rad) followed by transfer on polyvinylidene difluoride membrane (Immobilon, Millipore), and western blotting was performed as described (Nguyen et al., 2005) with indicated antibodies. For immunoprecipitations, lysates were incubated with 1 μg of anti-β-arrestin2, TAK1 antibody (Cell signaling), or GFP antibody (Santa Cruz Biotechnology) overnight at 4° C. and immune complexes precipitated with Protein A/G-conjugated beads (Invitrogen). Beads were washed with PBS and resuspended in sample buffer. Lysates and immune complexes were separated by SDS-PAGE, subjected to western blotting.
TNF-α and IL-6 were directly quantified from RAW 264.7 cells with or without GPR120 knockdown, or IPMacs culture medium. Cells were treated with 100 μM GW9508 or DHA for 1 hr prior to treat 100 ng/ml LPS for 6 hr and then collect medium from the cells and subjected to ELISA according to the manufacturer's instructions (BIOSOURCE). For GLP-1 measurement, mouse blood was collected 1 hr after indicated diet feeding. Adequate inhibitors (protease inhibitors and Diprotin A as DPP IV inhibitor) were used while blood was collecting and then subjected to ELISA to the manufacturer's instructions (ALPCO, Salem, N.H.).

IPMacs from WT mice = assay: In vitro transwell chemotaxis assay, WT IPMacs; format: cell-based, mouse; details: pretreatment 3 hr before exposure to 3T3-L1 adipocyte conditioned media
Procedure: (§2) It seemed possible that the reduction in ATM content in WT animals on the ω-3 FA diet reflected decreased chemotaxis of macrophages. To test this hypothesis, we measured the migratory capacity of IPMacs from WT and GPR120 KO mice using an in vitro transwell chemotaxis assay. […] Similar experiments were performed using the specific chemokine, monocyte chemotactic protein-1 (MCP-1) as a chemoattractant, rather than CM, and these experiments yielded identical results (FIG. 6D).
In vitro chemotaxis assay was performed as previously described (Patsouris et al., 2009). Briefly, mature 3T3-L1 adipocytes, more than 99% of cells showing large lipids droplets (12 days after differentiation protocol initiation), were used for preparation of conditioned media. […] For the migration per se, 100,000 IPMacs from WT or GPR120 KO mice were used per condition. The IPMacs were placed in the upper chamber of an 8 μm polycarbonate filter (24-transwell format; Corning, Lowell, Mass.), whereas adipocyte conditioned medium or MCP-1 treatment was placed in the lower chamber. After 3 hr of migration, cells were fixed in formalin and stained with 4′,6-diamidino-2-phenylindole and observed.

[3] = test system: IPMacs from GPR120 KO mice; assay: In vitro transwell chemotaxis assay, GPR120 KO IPMacs; format: cell-based, mouse; details: pretreatment before exposure to conditioned media
Procedure: as §2
In vitro chemotaxis assay was performed as previously described (Patsouris et al., 2009). Briefly, mature 3T3-L1 adipocytes, more than 99% of cells showing large lipids droplets (12 days after differentiation protocol initiation), were used for preparation of conditioned media. Treatment with the 100 μM DHA for 6 hr was performed in serum-free DMEM cultured IPMacs. For the migration per se, 100,000 IPMacs from WT or GPR120 KO mice were used per condition. The IPMacs were placed in the upper chamber of an 8 μm polycarbonate filter (24-transwell format; Corning, Lowell, Mass.), whereas adipocyte conditioned medium or MCP-1 treatment was placed in the lower chamber. After 3 hr of migration, cells were fixed in formalin and stained with 4′,6-diamidino-2-phenylindole and observed.

3T3-L1 adipocytes [4] = assay: GLUT4 translocation and 2-deoxyglucose uptake in 3T3-L1 adipocytes; format: cell-based; details: for glucose transport: pretreated 30 min
Procedure: FIG. 4. GPR120 activation enhances GLUT4 translocation and glucose uptake. (A) 3T3-L1 adipocytes were transfected with a dually tagged HA-GLUT4-GFP construct. Total GLUT4 expression was determined by GFP fluorescence, and GLUT4 translocation to the cell surface after 100 ng/ml insulin or 100 μM DHA stimulation for 30 min was determined by indirect immunofluorescence of the HA-conjugated with Alexa 594 in fixed cells. Translocation following insulin stimulation was expressed as a percentage of the maximum response. Bar graph represents the mean±SEM data from four independent experiments. *, p<0.05 vs. vehicle treatment. (B) Glucose uptake was measured in WT and GPR120 KO mouse primary adipose tissue and in (C-F) 3T3-L1 adipocytes±siRNA with the indicated treatment. […] Data are expressed as mean±SEM of three independent experiments in triplicate. *, p<0.05 vs. basal activity. The indicated siRNA knockdown efficiency was validated by western blotting. See also FIG. 10.
HA-GLUT4-eGFP expression vector were electroporated into day 8 post differentiated 3T3-L1 adipocytes for monitoring of GLUT4 translocation as previously described (Yoshizaki et al., 2007). For 2-DOG assay, 3T3-L1 adipocytes were pretreated for 30 min with the indicated drug; and stimulated with 3 ng/ml of insulin for 30 min at 37° C. L6 myocytes were pretreated for 30 min with 100 μM DHA and then stimulated with 100 ng/ml of insulin for 30 min. Glucose uptake was measured as previously described (Imamura et al., 1999).

L6 myocytes = assay: 2-deoxyglucose uptake in L6 myocytes; format: cell-based; details: 100 μM, compared to vehicle treated cells
Procedure: FIG. 11, related to FIG. 5. Hyperinsulinemic/euglycemic clamp studies in bone marrow transplanted animals and muscle expression of GPR120. For bone marrow transplantation studies, WT or GPR120 KO mouse bone marrow (BM) was injected into irradiated WT C57B1/6 animals after 8 weeks for BM reconstitution, GPR120 was >90% reduced in circulating monocytes. Animals were then kept on either chow or switched to 60% HFD for weeks (±supplemention with ω-3 FAs for 5 weeks). (A) BMT GPR120 KO animals on chow are insulin resistant compared to WT controls. This effect is mediated by decreased GIR and a greater suppression of HGP in WT animals compared to KOs (n=5 for WT and n=6 per KO group). (B) BMT GPR120 KO animals on HFD supplemented with […] FAs (+ω3) are insulin resistant compared to WT controls. This effect is shown by decreased GIR, decreased IS-GDR, and a greater suppression of HGP in WT animals compared to KOs. (C) GPR120 expression levels in various tissues. RPS3 was the internal control for normalization. GPR120 is not expressed in soleus, or EDL muscle. […] Data are expressed as mean±SEM. *, p<0.05 compared to WT in (A) and (B).
HA-GLUT4-eGFP expression vector were electroporated into day 8 post differentiated 3T3-L1 adipocytes for monitoring of GLUT4 translocation as previously described (Yoshizaki et al., 2007). […] Glucose uptake was measured as previously described (Imamura et al., 1999).

3T3-L1 adipocytes [5] = assay: Akt and IRS-1 phosphorylation in 3T3-L1 adipocytes (western blotting); format: cell-based
Procedure: FIG. 10, related to FIG. 4. DHA activates Akt phosphorylation in a GPR120-dependent manner. (A) Differentiated 3T3-L1 adipocytes were transfected with scrambled or GPR120 siRNA and then 48 hr after siRNA transfection, cells were treated with 100 μM of DHA 30 min prior to insulin (3 ng/ml) treatment for 7 min followed by western blotting with phosphorylated Akt (S473) antibody. […] Data are expressed as the mean±SEM of three independent experiments. *, p<0.05 versus basal. (B) Cells were treated with the PI3K inhibitor LY294002 (50 μM) for 30 min before DHA (100 μM) or insulin (3 ng/ml) treatment. (C) Phosphorylation of IRS-1 was detected after DHA or insulin treatment of 3T3-L1 adipocytes. (D) Schematic diagram of GPR120-mediated Akt activation in 3T3-L1 adipocytes.
as §1

WT mice on 60% HFD = assay: Hyperinsulinemic/euglycemic clamp in HFD-fed WT mice; format: in vivo, mouse; details: gavage 300 μl EPAX 1050TG, clamp 4 hr after gavage, vs saline
[6] = 100 μM 1 hr prior to LPS 100 ng/ml 10 min

## CCCCCCCCCCCCCCCC(=O)O [palmitic acid]
RAW 264.7 cells [1]
  ERK phosphorylation: activated

## CC/C=C\C/C=C\C/C=C\CCCCCCCC(=O)O [α-linolenic acid]
RAW 264.7 cells [1]
  ERK phosphorylation: activated

## CC/C=C\C/C=C\C/C=C\C/C=C\C/C=C\C/C=C\CCC(=O)O [DHA]
RAW 264.7 cells [2]; RAW 264.7 cells
  LPS-induced TAK1 and MKK4 phosphorylation: abrogated
  LPS-induced phosphorylation of JNK and IKKβ, IκB degradation, cytokine secretion and inflammatory gene expression level: strongly inhibited
RAW 264.7 cells [1]
  ERK phosphorylation: activated
IPMacs from WT mice
  inhibition of chemotactic capacity: 80%
[3]
  effect on chemotactic capacity: no significant effect
3T3-L1 adipocytes [4]; 100 μM, 30 min
  GLUT4 translocation to the cell surface: increased
3T3-L1 adipocytes [4]; 3T3-L1 adipocytes
  effect on glucose uptake relative to the effect of insulin: 30-50%
3T3-L1 adipocytes [4]
  glucose transport: increase
L6 myocytes
  glucose uptake: not altered
3T3-L1 adipocytes [5]
  IRS-1 phosphorylation: did not stimulate
3T3-L1 adipocytes [5]; 100 μM
  phosphorylation of Akt: modest effect
WT mice on 60% HFD
  whole body glucose homeostasis after acute treatment: no effect

## O=C(O)CCc1ccc(NCc2cccc(Oc3ccccc3)c2)cc1 [GW9508]
RAW 264.7 cells [2]; [6]
  IκB degradation: prevented
  LPS stimulated phosphorylation of IKKβ and JNK: inhibited
RAW 264.7 cells [2]; 100 μM 1 hr prior to LPS 100 ng/ml 6 hr, ELISA
  TNF-α and IL-6 secretion: inhibited
RAW 264.7 cells [2]; RAW 264.7 cells
  LPS-induced phosphorylation of JNK and IKKβ, IκB degradation, cytokine secretion and inflammatory gene expression level: strongly inhibited
3T3-L1 adipocytes [4]
  glucose transport: stimulatory effect
